Assay results published in patent US5608095A, “Alkyl-4-silyl-phenols and esters thereof as antiatherosclerotic agents” (Hoechst Marion Roussel, Inc., priority 1996, dated 1997).
Where two headings read alike, the source gives them in different places.

Key:
[1] = Clinical chemistries in serum of rats; type: in vivo, male Sprague-Dawley rats; settings: for response vs control in vivo at 0.3 %: Rattus norvegicus, po, 96 h; for ALP (alkaline phosphatase), percent of control / ALT (alanine aminotransferase), percent of control / AST (aspartate aminotransferase), percent of control / GLUC (glucose), percent of control: rat serum, diet 0.3%, 4 days
Excerpt: (§1) A typical experiment consisted of 4-6 groups of rats (N=5 per group) with 1 group being a control which received no MDL compound and the other groups being treated with 0.3% MDL compound. Some of the compounds were either repeated at 0.3% or evaluated again at the lower dose of 0.1%. Male Sprague-Dawley rats, 50-100 g, (Harlan Laboratories, Indianapolis, Ind.) were housed in groups of 5, fed ad libitum water and Purina Rodent chow (#5002) with or without MDL compound as a dietary admixture for 4 days. Dietary admixtures (0.3%) were made by mixing 1.2 grams of an MDL compound with 400 grams of Purina rodent chow (#5002). The MDL compound was mixed with approximately 50 grams of food using a mortar and pestle. This was added to the remainder of the food and mixed for 3 hours on a rotary mixer. In the morning of day 5, non-fasted rats were anesthetized with carbon dioxide, and blood was collected by cardiac puncture. Rats were sacrificed by cervical dislocation. Body weights and liver weights were recorded in grams. Food consumption was recorded as grams.cndot.day^-1.cndot.rat^-1. Deaths were recorded as mortality. Aliquots of fresh serum were used for clinical chemistries, thiobarbituric acid reactive substances (TBARS) and conjugated diene measurements. Aliquots of serum (~0.5mL) and whole livers were frozen at -20° C. for compound and metabolite concentration determination at a later time.
Blood was allowed to clot at room temperature for 30 minutes. Serum was obtained after centrifugation for 10 min at 4° C. at 3000 rpm in a Beckman J-6M/E centrifuge with a JS-4.2 rotor. Fresh serum was analyzed by a COBAS MIRA S autoanalyzer (Roche Diagnostics) using Roche diagnostic reagents for the following clinical chemistry measurements: alkaline phosphatase (ALP, kit #44553), alanine transaminase (ALT, kit #42375), aspartate aminotransferase (AST, kit #42381), total cholesterol (CHOL, kit #44334), triglyceride (TG, kit #44120), and glucose (GLU, kit #44558). ALP, ALT, and AST were calculated as units/L. Cholesterol, triglycerides, and glucose were calculated as mg/dL.

[2] = tested on: oxidation of serum lipids; test: TBARS assay, rat serum; type: in vivo, male Sprague-Dawley rats; settings: Rattus norvegicus, po, 96 h, read-out: TBARS, percent of control
Excerpt: as §1
In this assay the oxidation of serum lipids is initiated with CuSO4, resulting in the formation of aldehydes, such as malondialdehyde (MDA). Upon incubation with thiobarbituric acid, the absorbance of the aldehydes can be detected at 530-540 nm. As stated in the previous example, TBARS values which are lower than control serum values indicate the relative ability of a test compound to inhibit the oxidation of lipids in a sample. TBARS were measured as follows: 100 μL of serum were mixed with 400 μL of a 5 mmol CuSO4 solution and incubated at 37° C. for 3 hr. The reactions were stopped by addition of 1.0 mL of 20% trichloroacetic acid. Then 1.0 mL of 0.67% thiobarbituric acid in 0.05N sodium hydroxide was added, mixed, and the samples incubated for 30 min at 90° C. Samples were centrifuged briefly to pellet undissolved material, and the supernatants were transferred to a 96-well microtiter plate. Absorbances were measured at 540 nm using a Biotek model EL311 microplate reader. The nmoles of MDA produced were calculated from a standard curve of 0 to 10 nmoles of MDA prepared from malonaldehyde bis(dimethylacetal). Serum samples from treated rats were compared to serum samples from control rats that received no MDL compound.

oxidation of lipids = test: Conjugated diene determination, rat serum; type: in vivo, male Sprague-Dawley rats; settings: pooled rat serum, diet 0.3%, 4 days, mean of 2 determinations
Excerpt: as §1
Conjugated diene lag phase is another indicator of the oxidation of lipids. Lipids exposed to Cu^++ form conjugated dienes that absorb ultraviolet light in the range of 230 to 235 nm. The lag phase of diene formation gives an indication of the amount of oxidation of the lipids. A lag phase longer than control samples indicate inhibition of the oxidation. Conjugated diene lay phase was determined using a Varian DMS200 spectrophotometer (fitted with a constant temperature, 5 cuvette sample changer) at 30° C. Twenty (20) μL of pooled serum were added to cuvettes containing 3.0 mL phosphate buffered saline, pH 7.5, and mixed. The absorbances of all cuvettes were measured, and the instrument baseline was set to zero using the lowest absorbing sample. Next, 100 μL of 1 mmol CuSO4 were added and immediately mixed. The absorbance of each cuvette was recorded at 2 min intervals for a period of 840 min. The data were captured and transferred to a Microsoft EXCEL® spreadsheet where the curves were smoothed and differentials obtained. Lag times were determined mathematically as minutes. Serum samples were pooled (N=5); data presented are the mean values of 2 determinations. Serum samples from treated rats were compared to serum samples from control rats that received no MDL compound.

[3] = Animal parameters (food, body weight, liver weight, mortality) in rats; type: in vivo, male Sprague-Dawley rats; settings: diet 0.3%, 4 days; for mortality at 96 h: in vivo, po, read-out: mortality (deaths per group); for mortality at 96 h / body wt., percent of control / lw/bw (liver weight/body weight), percent of control: rat
Excerpt: as §1

[4] = HPLC quantitation of compound and metabolite concentration in rat serum and liver; type: in vivo, male Sprague-Dawley rats; settings: diet 0.3%, 4 days; for Liver Parent = parent compound concentration: rat liver; for Serum Parent = parent compound concentration: rat serum
Excerpt: as §1
Serum and liver concentrations of parent compound and the metabolites, bisphenol and diphenoquinone, were determined by reverse phase HPLC using a Waters 990 Powerline system. Livers (1 gram samples) were homogenized with 5.0 mL PBS, pH 7.4, using a Polytron tissue homogenizer at setting 5 for 20-30 seconds. Serum or liver homogenates were extracted as follows: 100μL of either serum or homogenate were added to 2.0 mL diethyl ether:ethanol (3:1) while vortexing the tube. The sample tubes were capped and centrifuged for 10 min at 5° C. at 3500 rpm in a Beckman GPKR centrifuge with a GH 3.7 rotor. The supernatants were transferred to clean tubes and dried under N2. Samples were reconstituted with 200 μL of acetonitrile:hexane:0.1M ammonium acetate (90:6.5:3.5, by vol.). Then, 100 μL were injected onto a Waters Deltapak C18-300 Å column, and eluted with an 83% acetonitrile:17% water mobile phase at a flow rate of 1.5 mL/min. Absorbances at the wavelengths of 240, 254, and 420 nm were recorded. Compound concentrations were calculated from known quantities of authentic parent compounds after correction for recovery; the range of recovery from spiked samples was 40 to 100%. The lowest detectable limit for this class of compounds was ~0.5 μg/mL. […]. Concentrations were calculated as μg/mL of serum and μg/g of liver.

VCAM-1 = settings: vascular endothelial cells; cited from earlier work
[5] = read-out: CHOL (total cholesterol), percent of control
[6] = read-out: TRIG (triglycerides), percent of control

Row | SMILES | response vs control in vivo at 0.3 % [1, 5] [%] | response vs control in vivo at 0.3 % [1, 6] [%] | ALP (alkaline phosphatase), percent of control [1] [%] | ALT (alanine aminotransferase), percent of control [1] [%] | AST (aspartate aminotransferase), percent of control [1] [%] | GLUC (glucose), percent of control [1] [%] | response vs control in vivo at 0.3 % [2] [%] | CONJ. DIENE (conjugated diene lag phase) (oxidation of lipids) [min] | food (grams eaten per day per rat), percent of control [3] [%] | mortality at 96 h [3] [%] | body wt., percent of control [3] [%] | lw/bw (liver weight/body weight), percent of control [3] [%] | Liver Parent = parent compound concentration [4] [µg/g] | Serum Parent = parent compound concentration [4] [µg/mL] | inhibition of cytokine-induced expression of VCAM-1 (VCAM-1)
1 | CC(=O)Oc1c(C)cc(OC[Si](C)(C)c2ccccc2)c(C)c1C [MDL 103,157, 2,3,6-Trimethyl-4-[(dimethylphenylsilyl)methyloxy]phenol acetic acid ester] | 112 | 82 | 144 | 133 | 92 | 100 | 94 | 50 | 96 | 0 | 96 | 120 | 0 | 0 | –
2 | CC(C)(C)c1cc(OC[Si](C)(C)c2ccccc2)ccc1OC(=O)CCC(=O)O [MDL 104,399, 2-t-Butyl-4-[(dimethylphenylsilyl)methyloxy]phenol succinic acid ester] | 130 | 168 | 91 | 107 | 102 | 88 | 41 | 395 | 90 | 0 | 101 | 118 | 0 | 0 | –
3 | CC(=O)Oc1cc(C(C)(C)C)c(OC[Si](C)(C)c2ccccc2)cc1C(C)(C)C [MDL 106,290, 2,5-Di-t-butyl-4-[(dimethylphenylsilyl)methyloxy]phenol acetic acid ester] | 153 | 75 | 118 | 89 | 84 | 109 | 17 | 372 | 108 | 0 | 95 | 104 | – | – | –
4 | CC(=O)N[C@@H](CS)C(=O)O [N-acetylcysteine] | – | – | – | – | – | – | – | – | – | – | – | – | – | – | inhibit cytokine-induced expression of VCAM-1
5 | S=C(S)N1CCCC1 [pyrollidine dithiocarbamate] | – | – | – | – | – | – | – | – | – | – | – | – | – | – | inhibit cytokine-induced expression of VCAM-1
